Source: EP4643858A1, “METHODS AND PHARMACEUTICAL COMPOSITION FOR THE TREATMENT OF UTERINE DISEASE” (Institut National de la Santé et de la Recherche Médicale, priority 2024, dated 2025)

Assays:
P-AKTSer473 [1] = test: Patient myometrium and myoma samples treated in vitro, Western blot of P-AKT; assay type: cell-based, human; settings: myometrium and myoma samples from patients treated in vitro 24 hours at different doses; Western blot P-AKTSer473 (Figure 4)
Protocol: (§1) Tissues were crushed and then lysed in RIPA lysis buffer supplemented with phosphatase and protease inhibitors. Protein concentrations were determined through the bicinchoninic acid method (Pierce). Protein extracts were analyzed by Western blot where the transfer membrane was incubated with a primary antibody followed by the appropriate peroxidase-conjugated secondary antibody (dilution 1:10,000). Chemiluminescence were acquired using a Chemidoc MP and bands were quantitated with the Image Lab Software (Bio-Rad Laboratories).
as §1, with “Tissues collected from patients (endometrium, adenomyosis, endometriosis and myoma). Tissues were cultivated in media and treated during 24 hours with either DMSO, alpelisib or ST420 (Compound having formula I and/or its derivatives). Then, they” for “Tissues”, “and” for “and then”, “Laboratories). […]” for “Laboratories).”

P-AKTSer473 [2] = test: Patient tissues (healthy endometrium, adenomyosis or endometriosis lesions) treated in vitro, Western blot of P-AKT; assay type: cell-based, human; settings: healthy endometrium and lesions of adenomyosis or endometriosis from patients, exposed in vitro during 24 hours to different doses; Western blot P-AKTSer473 (Figure 3B)
Protocol: as §1
as §1, with “Tissues collected from patients (endometrium, adenomyosis, endometriosis and myoma). Tissues were cultivated in media and treated during 24 hours with either DMSO, alpelisib or ST420 (Compound having formula I and/or its derivatives). Then, they” for “Tissues”, “and” for “and then”
PIK3CA pharmacological inhibitors are developed for oncology and other medical situations. […]

[3] = patients treated with alpelisib; cited from earlier work

In the case of Cc1nc(NC(=O)N2CCC[C@H]2C(N)=O)sc1-c1ccnc(C(C)(C)C(F)(F)F)c1 [alpelisib], the “inhibition of the PIK3CA pathway in myoma” value (P-AKTSer473 [1]) is given as “able to inhibit the pathway in myoma”, the “phosphorylation of AKT” value (P-AKTSer473 [2]) is given as “able to shut down the phosphorylation of AKT” and the “insulin resistance which can lead to diabetes, share of patients” value [3] is given as “about 30%”.
